Measurements from US20250381181A1, “CANCER TREATMENT AGENT INCLUDING MALT1 INHIBITING DRUG AS ACTIVE INGREDIENT” (ONO PHARMACEUTICAL CO., LTD., priority 2022, published 2025).

How the values were obtained:
[1] = system: Human CD79 mutation-positive diffuse large B-cell lymphoma cell line 1; assay: Combined effect on cell viability, Compound A and Btk inhibitor (CellTiter-Glo, in vitro); assay type: cell-based; conditions: combined treatment with Compound A
Protocol: (§1) Using Ibrutinib as a Btk inhibitor, the combined effect on cell viability with Compound A was evaluated in vitro.
(§2) After 6 days of culture from the addition, the cell viability was evaluated as follows.
(§3) Cell viability was evaluated by each treatment by measuring intracellular adenosine triphosphate (ATP) using CellTiter-Glo. That is, 100 μL of CellTiter-Glo solution per well was added to each well and incubated at room temperature for 15 minutes, and then chemiluminescence was measured. The average value of each combination was calculated from the obtained data, and a concentration reaction curve of the cell viability of each drug alone or in combination was created with the luminescence intensity in cells treated with DMSO alone as 100%.
(§4) The half maximal inhibitory concentration (IC50) for each drug was determined using median effect analysis software CalcuSyn 2.0 (CalcuSyn, Inc).

[2] = system: Human CD79 mutation-positive diffuse large B-cell lymphoma cell line 2; assay: as above; assay type: cell-based; conditions: combined treatment with Compound A, 6 days of culture
Protocol: as §1, §2, §3, §4

[3] = system: human CD79 mutation-positive diffuse large B-cell lymphoma cell line; assay: Antitumor effect in mouse subcutaneous transplantation model; assay type: in vivo; conditions: orally for 21 days; Compound A 10 mg/kg twice a day, Ibrutinib 10 mg/kg once a day; subcutaneous tumor in NOG mice
Protocol: A human CD79 mutation-positive diffuse large B-cell lymphoma cell line was used. The cells were subcultured using Iscove's modified Dulbecco's medium containing 20% inactivated calf serum and 0.5 mmol/L Monothioglycerol under conditions of 5% CO2 and 37° C.
The cells were suspended in HBSS:Matrigel=1:1 and implanted subcutaneously in the abdomen of 7-week-old female NOG mice at 1×10^6 cells/mouse. The tumor volume was measured using a caliper, and calculated by a calculation formula of tumor volume=(major tumor diameter×minor tumor diameter×minor tumor diameter)/2. At the time when the tumor volume reached about 120 mm^3, grouping was performed into 4 groups of 6 mice per group. Compound A was orally administered at a dose of 10 mg/kg twice a day for 21 days, and Ibrutinib was orally administered at a dose of 10 mg/kg once a day for 21 days. Also, the combined administration group was orally administered with 10 mg/kg of Compound A and 10 mg/kg of ibrutinib. The control group was orally administered with a 0.5% methylcellulose solution. After grouping, tumor volume measurements were performed twice a week. T/C (%) was used as an index of the antitumor effect.
Regarding the amount of tumor volume change during the administration period of each group, the combined antitumor effect of Compound A and Ibrutinib was analyzed by a statistical method of two-way ANOVA of EZR (ver. 1.54) software.

[4] = system: Human CD79 mutation-positive diffuse large B-cell lymphoma cell line; assay: Combination of Compound A and each anticancer agent, cell viability (Cell Counting Kit-8); conditions: combined treatment with Compound A (3, 10, 30 or 100 nmol/L); CD79 mutation-positive DLBCL; 6 days
Protocol: (§6) Human CD79 mutation-positive diffuse large B-cell lymphoma cell lines and human mantle cell lymphoma cell lines were used. The cells were subcultured using RPMI1640 containing 10% non-mobilized fetal bovine serum (hereinafter, the medium) under conditions of 5% CO2 and 37° C.
(§7) The cells suspended in the medium were seeded in 96 well plates at a density of 2500 or 5000 cells/100 μL per well. […] After completion of the culture, the number of surviving cells was measured using Cell Counting Kit-8 (DOJINDO) according to the procedure of the kit.

[5] = system: Human mantle cell lymphoma cell line; assay: as above; conditions: combined treatment with Compound A (3, 10, 30 or 100 nmol/L), 6 days
Protocol: as §6, §7

Human MCL cell line = assay: Combination of Compound A and Btk inhibitor or Bcl-2 inhibitor, cell viability (Cell Counting Kit-8); assay type: cell-based; conditions: combined treatment with Compound A (10, 30 or 100 nmol/L), 6 days
From the text: (§5) Treatment concentrations of Compound A were 10, 30 or 100 nmol/L, and treatment concentrations of the Btk inhibitor and the Bcl-2 inhibitor were set between 0.3 to 300 nmol/L or 0.003 to 10 nmol/L, respectively.

[6] = system: Human CD79 mutation-positive DLBCL cell line; assay: as above; assay type: cell-based; conditions: combined treatment with Compound A (10, 30 or 100 nmol/L), 6 days
From the text: as §5

[7] = system: Human CARD11 mutation-positive DLBCL cell line; assay: Combination of Compound A and Bcl-2 inhibitor, cell viability (Cell Counting Kit-8); assay type: cell-based; conditions: combined treatment with Compound A (10, 30 or 100 nmol/L), 6 days
From the text: as §5

## C=CC(=O)N1CCC[C@@H](n2nc(-c3ccc(Oc4ccccc4)cc3)c3c(N)ncnc32)C1 [Ibrutinib]
[1]; cell line 1, 6 days of culture
  combination index (CI), median: 0.629
[1]; in each cell line (cell lines 1 and 2), synergistic effect
  median of CI: less than 1
[2]
  combination index (CI), median: 0.504
[3]
  T/C (%): 63.1%

## CS(=O)(=O)N1CCN(Cc2cc3nc(-c4cccc5[nH]ncc45)nc(N4CCOCC4)c3s2)CC1 [GDC-0941]
[4]
  Combination index (CI) value, median: 0.873
[5]
  Combination index (CI) value, median: 0.694

## Nc1cc(C(F)(F)F)c(-c2cc(N3CCOCC3)nc(N3CCOCC3)n2)cn1 [BKM120]
[4]
  Combination index (CI) value, median: 0.729

## C[C@]12C=CC(=O)C=C1CC[C@@H]1[C@@H]2[C@@H](O)C[C@@]2(C)[C@H]1CC[C@]2(O)C(=O)CO [Prednisolone]
[4]
  Combination index (CI) value, median: 0.168
[5]
  Combination index (CI) value, median: 0.854

## C=C(c1ccc(C(=O)O)cc1)c1cc2c(cc1C)C(C)(C)CCC2(C)C [Bexarotene]
[5]
  Combination index (CI) value, median: 0.276

## CN1CCC(c2ccccc2CC(C)(C)Nc2nc(N3CCOCC3)nc(-n3c(C(F)F)nc4ccccc43)n2)CC1 [Zandelisib]
[4]
  Combination index (CI) value, median: 0.494
[5]
  Combination index (CI) value, median: 0.698

## COc1cccc2c1C(=O)c1c(O)c3c(c(O)c1C2=O)C[C@@](O)(C(=O)CO)C[C@@H]3O[C@H]1C[C@H](N)[C@H](O)[C@H](C)O1 [Doxorubicin]
[4]
  Combination index (CI) value, median: 0.953
[5]
  Combination index (CI) value, median: 0.932

## CC(=O)Nc1cccc(-n2c(=O)n(C3CC3)c(=O)c3c(Nc4ccc(I)cc4F)n(C)c(=O)c(C)c32)c1 [Trametinib]
[4]
  Combination index (CI) value, median: 0.218
[5]
  Combination index (CI) value, median: 0.971

## Cn1cc(C2=C(c3cn(C4CCN(Cc5ccccn5)CC4)c4ccccc34)C(=O)NC2=O)c2ccccc21 [Enzastaurin]
[4]
  Combination index (CI) value, median: 0.854
[5]
  Combination index (CI) value, median: 0.842

## Cc1cc(-c2nc(C(=O)Nc3cc4oc(N5CCOCC5)nc4nc3N3CC[C@@H](O)C3)co2)ccn1 [CA-4948]
[4]
  Combination index (CI) value, median: 0.905
[5]
  Combination index (CI) value, median: 0.846

## Irinotecan (SN-38)
[4]
  Combination index (CI) value, median: 0.993
[5]
  Combination index (CI) value, median: 0.903

## NC(=O)c1cnc(N[C@@H]2CCCC[C@@H]2N)nc1Nc1cccc(-n2nccn2)c1 [PRT062607]
[4]
  Combination index (CI) value, median: 0.630
[5]
  Combination index (CI) value, median: 0.820

## CC#CC(=O)N1CC[C@@H](n2c(=O)n(-c3ccc(Oc4ccccc4)cc3)c3c(N)ncnc32)C1 [Tirabrutinib]
Human MCL cell line
  Combination index (CI) value, median: 0.822
[6]
  Combination index (CI) value, median: 0.761

## CC#CC(=O)N1CCC[C@H]1c1nc(-c2ccc(C(=O)Nc3ccccn3)cc2)c2c(N)nccn12 [Acarabrutinib]
Human MCL cell line
  Combination index (CI) value, median: 0.956
[6]
  Combination index (CI) value, median: 0.839

## CO[C@H]1C[C@@H]2CC[C@@H](C)[C@@](O)(O2)C(=O)C(=O)N2CCCC[C@H]2C(=O)O[C@H]([C@H](C)C[C@@H]2CC[C@@H](OCCO)[C@H](OC)C2)CC(=O)[C@H](C)/C=C(\C)[C@@H](O)[C@@H](OC)C(=O)[C@H](C)C[C@H](C)/C=C/C=C/C=C/1C [Everolimus]
[4]
  Combination index (CI) value, median: 0.464
[5]
  Combination index (CI) value, median: 0.225

## Nc1cccc2c1CN(C1CCC(=O)NC1=O)C2=O (stereo not drawn) [Lenalidomide]
[4]
  Combination index (CI) value, median: 0.736
[5]
  Combination index (CI) value, median: 0.190

## CC1(C)CCC(CN2CCN(c3ccc(C(=O)NS(=O)(=O)c4ccc(NCC5CCOCC5)c([N+](=O)[O-])c4)c(Oc4cnc5[nH]ccc5c4)c3)CC2)=C(c2ccc(Cl)cc2)C1 [Venetoclax]
Human MCL cell line
  Combination index (CI) value, median: 0.372
[6]
  Combination index (CI) value, median: 0.5985
[7]
  Combination index (CI) value, median: 0.5995

## CC(=O)c1c(C)c2cnc(Nc3ccc(N4CCNCC4)cn3)nc2n(C2CCCC2)c1=O [Palbociclib]
[4]
  Combination index (CI) value, median: 0.658
[5]
  Combination index (CI) value, median: 0.443

## CN1CCN(c2nc(C3=C(c4c[nH]c5ccccc45)C(=O)NC3=O)c3ccccc3n2)CC1 [Sotrastaurin]
[4]
  Combination index (CI) value, median: 0.896
[5]
  Combination index (CI) value, median: 0.775

## O=C(CCCCCCC(=O)Nc1ccccc1)NO [Vorinostat]
[4]
  Combination index (CI) value, median: 0.930
[5]
  Combination index (CI) value, median: 0.866

## O=C(c1ccc(Oc2ccccc2)cc1Cl)c1c[nH]c2ncnc(N[C@@H]3CC[C@@H](CO)OC3)c12 [ARQ-531]
Human MCL cell line
  Combination index (CI) value, median: 0.928
[6]
  Combination index (CI) value, median: 0.701

## NC1(c2ccc(-c3nc4ccn5c(=O)[nH]nc5c4cc3-c3ccccc3)cc2)CCC1 [MK-2206]
[4]
  Combination index (CI) value, median: 0.626
[5]
  Combination index (CI) value, median: 0.915

## COc1ccc(F)cc1C(=O)NCc1ccc(-c2nn([C@@H](C)C(F)(F)F)c(N)c2C(N)=O)cc1 [LOXO-305]
Human MCL cell line
  Combination index (CI) value, median: 0.646
[6]
  Combination index (CI) value, median: 0.764

## CO[C@@H](C)c1c(NC(=O)Nc2cnc(-n3nccn3)c(C(F)(F)F)c2)cnc2ccc(Cl)nc12 [Compound A, (S)—N-(6-chloro-4-(1-methoxyethyl)-1,5-naphthyridin-3-yl)-N′-(6-(2H-1,2,3-triazol-2-yl)-5-(trifluoromethyl)pyridin-3-yl)urea]
[3]
  T/C (%): 49.8%

## CC[C@H](Nc1ncnc2[nH]cnc12)c1nc2cccc(F)c2c(=O)n1-c1ccccc1 [Idelalisib]
[4]
  Combination index (CI) value, median: 0.528
[5]
  Combination index (CI) value, median: 0.457

## C=CC(=O)N1CCC([C@@H]2CCNc3c(C(N)=O)c(-c4ccc(Oc5ccccc5)cc4)nn32)CC1 [Zanubrutinib]
Human MCL cell line
  Combination index (CI) value, median: 0.75
[6]
  Combination index (CI) value, median: 0.811

## Nc1cc(F)ccc1NC(=O)c1ccc(CNC(=O)/C=C/c2cccnc2)cc1 [Tucidinostat]
[4]
  Combination index (CI) value, median: 0.756
[5]
  Combination index (CI) value, median: 0.668
